Assay results as given in US9365534B2, “Arylated camphenes, processes for their preparation and uses thereof” (Yissum Research Development Company of the Hebrew …, priority 2009, dated 2016).
Read-outs that look alike come from different tables or passages of the source.

Key:
[1] = molecular target: T1, human CB1 receptor (Homo sapiens (Human), UniProt P21554); experiment: Membrane competition binding assay with [3H]-CP 55,940, CHO-CB1 membranes
Description: (§1) The cDNA clones for human HA-tagged CB1 and CB2 receptors were obtained from the Missouri S&T cDNA Resource Center (www.cdna.org) in cloning vector pcDNA3.1+. The vector containing the human CB2 receptor was transfected directly into CHO-KI cells obtained from ATCC. The HA-tagged human CB1 receptor sequence was subcloned into the pef4-V5-HisA vector with Kpn1 and Pme1 restriction enzymes and subsequently transfected into CHO-K1 cells. Cells were clonally isolated by limited dilution and screened by immunocytochemistry for expression of the HA tag.
(§2) Cells were maintained in DMEM/F12 media supplemented with 10% fetal bovine serum (FBS), 100 units/ml penicillin and 100 μg/ml streptomycin and 2 mM L-glutamine. Transfected cell lines were maintained with additional 150 ug/ml zeocin for pEF HA-CB1 transfected cells and 500 ug/ml G-418 for pcDNA HA-CB2 transfected cells (all reagents obtained from Invitrogen).
(§3) Cells were grown to confluence and harvested in ice cold phosphate buffered saline with 5 mM EDTA. Cells were spun at 200×g for 10 min and frozen at −80° C. until required. Cell pellets were thawed with cold 0.32 M sucrose and homogenised with a glass homogeniser. The homogenate was spun at 1000×g for 10 min at 4° C. and the supernatant spun in a Sorvall ultracentrifuge for 30 min at 100,000×g. The pellet was then washed in ice cold water and re-spun twice more. The final pellet was resuspended in 50 mM Tris pH 7.5, 0.5 mM EDTA. Protein concentration was determined using the Dc protein assay kit (BioRad, Hercules, Calif., USA).
(§4) Membranes (5-10 μg) were incubated with radioligand and a range of concentrations of test compounds in binding buffer (50 mM Tris pH 7.4, 5 mM MgCl2, 1 mM EDTA) with 0.5% (w/v) bovine serum albumin (BSA) (ICP Bio, New Zealand), at 30° C. for 60 min. Stock solutions of putative cannabinoid ligands were prepared in dimethyl sulfoxide to a concentration of 10 mM. Six different final concentrations of compounds were used ranging from 50 μM to 0.1 nM. […] Assays were terminated by addition of 2 ml ice cold binding buffer and filtration through GF/C filters (Whatman) pre-soaked in cold binding buffer, followed by two washes in the same buffer.
(§5) Radioactivity was determined by incubation of filters with Irgasafe scintillation fluid (PerkinElmer) and scintillation counting in a Wallac Trilux using Microbeta Trilux software. Data was analysed using the Prism 4.02 programme (GraphPad Software, San Deigo, Calif., USA).
(§6) All data was analyzed using Prism 4.02. For binding data the Ki was determined from IC50 values derived from competition binding data fitted with one site competition non-linear regression analysis by Prism 4.02 using the Kd values reported above.

[2] = molecular target: T2, human CB2 receptor (Homo sapiens (Human), UniProt P34972); experiment: cell-based
Description: as §1, §2
(§7) Cells were seeded at a density of 10,000 cells per well in poly-L-lysine treated 96-well culture plates (BD Biosciences). The following day wells were incubated with 40 μl DMEM/F12 containing 0.5% (w/v) BSA and 0.5 mM 3-isobutyl-1-methylxanthine (Sigma-Aldrich) for 30 minutes prior to 15 min stimulation with 50 μM forskolin (Tocris Cookson) and varying concentrations of indicated compounds at 37° C., 5% CO2. Assays were stopped by removal of media and addition of 100% ice cold ethanol. Plates were then frozen for a minimum of two hours before complete evaporation of ethanol. The well contents were then reconstituted in 50 μl cAMP assay buffer (20 mM HEPES pH 7.5 and 5 mM EDTA). Half of the reconstituted sample was transferred to round bottom 96-well plates (Greiner Bio-One GmbH) with 50 μl 0.01% w/v PKA (cAMP dependent protein kinase (Sigma-Aldrich) in 1 mM Na citrate pH 6.5 with 2 mM dithiothreitol) and 25 μl [^3H]-cAMP (at 22 nM in cAMP assay buffer) (GE Healthcare, Life Sciences). This was allowed to equilibrate for 3-18 hours. Following this a charcoal slurry (5% (w/v) activated charcoal and 0.2% (w/v) BSA in cAMP assay buffer) was added to the samples and the plates centrifuged at 3000×g, 4° C. for 5 min. Radioactive counts within the supernatant were then determined as described for competition binding assays.
(§8) pIC50 values were determined from cAMP assays by fitting a sigmoidal concentration response curve using Prism 4.02.

[3] = molecular target: T1, human CB1 receptor; experiment: cell-based
Description: as §1, §2, §7, §8

[4] = molecular target: T2, human CB2 receptor; experiment: Membrane [35S]GTPγS binding assay; format: biochemical; conditions: read-out: [35S]GTPγS Emax
Experimental: Human CB2 expressing CHO-K1 membranes (5 μg per incubation mixture) were diluted in 50 mM Tris-HCl (pH 7.5) and 0.5 mM EDTA and added to HU compounds in a pre-mixed incubation cocktail. Final incubation concentrations were 55 mM Tris-HCl (pH 7.4), 1 mM EDTA, 100 mM NaCl, 5 mM MgCl2, 0.5% BSA, 50 μM GDP, 0.2 nM [^35S]GTPγS (PerkinElmer) with varied HU compound concentration and 5 μg membrane. Incubations were continued for 60 minutes at 30° C. in a shaking water bath. Assays were terminated by addition of 2 ml ice cold wash buffer (50 mM Tris-HCl, pH 7.5 and 5 mM MgCl2) and filtration through pre-soaked GF/C filters (Whatman), followed by two further washes. adioactivity was determined as described for competition binding assays.
Data was analyzed using the Prism 4.02 programme (GraphPad Software, San Deigo, Calif., USA). IC50 and EC50 values, as determined from sigmoidal curves, were generated from drug concentrations plotted in log scale. […] It is possible to display data as an average, plus or minus the standard error of the mean in log form, however, this is not easily interpreted or compared to other values. It was therefore elected to calculate the 95% confidence interval for the mean value in log form and then convert the lower limit, mean and upper limit into the molar (linear) scale. […] Two-tailed t-tests for statistical analysis between enantiomeric pairs of compounds were performed for CB2 Ki values. The Pearson value, an indication of linearity, was determined for Ki and IC50 or EC50 results obtained for CB2 receptors in binding, cAMP or GTPγS experiments, respectively.

[5] = molecular target: T2, human CB2 receptor; experiment: Membrane competition binding assay with [3H]-CP 55,940, CHO-CB2 membranes
Description: as §1, §2, §3, §4, §5, §6

[6] = CHO, read-out: cAMP Assay CB2 Receptor Emax
[7] = CHO-CB2 cellular membranes, 2.5 nM [3H]-CP 55,940
[8] = whole cells expressing CB2, 50 μM forskolin; read-out: cAMP Assay CB2 Receptor IC50
[9] = whole cells expressing CB1, 50 μM forskolin, read-out: cAMP Assay CB1 Receptor IC50
[10] = CHO-CB1 cellular membranes, 2.5 nM [3H]-CP 55,940, read-out: Competition Binding Assay CB1 Receptor Ki
[11] = read-out: cAMP Assay CB2 Receptor IC50

T1 sequence (P21554 whole entry): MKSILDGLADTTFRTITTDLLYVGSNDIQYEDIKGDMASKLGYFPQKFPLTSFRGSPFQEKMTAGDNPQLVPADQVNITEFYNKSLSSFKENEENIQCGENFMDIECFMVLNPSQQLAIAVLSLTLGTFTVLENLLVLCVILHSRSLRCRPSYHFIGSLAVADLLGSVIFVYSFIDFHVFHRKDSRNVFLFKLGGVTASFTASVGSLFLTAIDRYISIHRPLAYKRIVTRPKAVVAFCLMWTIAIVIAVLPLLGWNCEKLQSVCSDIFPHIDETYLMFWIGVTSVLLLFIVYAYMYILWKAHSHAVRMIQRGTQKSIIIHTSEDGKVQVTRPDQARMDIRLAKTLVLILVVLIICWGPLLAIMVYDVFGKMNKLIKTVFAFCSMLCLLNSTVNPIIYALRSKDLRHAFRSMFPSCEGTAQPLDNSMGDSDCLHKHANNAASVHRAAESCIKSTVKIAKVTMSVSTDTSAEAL

Compound | Emax [2, 6] [%] | Ki [5, 7] [µM] | IC50 [2, 8] [µM] | IC50 [3, 9] [µM] | Ki [1, 10] [µM] | Ki [5] [µM] | further results
CCCCCCC(C)(C)c1cc(O)c2c(c1)OC(C)(C)[C@@H]1CC=C(CO)C[C@@H]21 [HU-210, 1,1-Dimethylheptyl-11-hydroxy-tetrahydrocannabinol, reference compound] |  |  |  |  |  |  | Ki ([1]; read-out: Competition Binding Assay CB1 Receptor Ki): 0.00294 µM
CCCCCCC(C)(C)c1cc(OC)c([C@@H]2C=C(CO)[C@@H]3C[C@H]2C3(C)C)c(OC)c1 [HU-308, [(1R,2R,5R)-2-[2,6-dimethoxy-4-(2-methyloctan-2-yl)phenyl]-7,7-dimethyl-4-bicyclo[3.1.1]hept-3-enyl]methanol, reference compound] | 100 |  |  |  |  |  | IC50 [3]: > 50 µM; Ki [1]: > 50 µM; Emax [4]: 100%
CCCCCCC(C)(C)c1cc(OC)c(C2=C[C@H]3CC[C@]2(C)C3(C)C)c(OC)c1 [HU-907, (1R,4R)-2-(2,6-dimethoxy-4-(2-methyloctan-2-yl)phenyl)-1,7,7-trimethylbicyclo[2.2.1]hept-2-ene] |  | 2.51 | > 50 | > 50 | > 50 |  | 
CCCCCCC(C)(C)c1cc(OC)c(C2=C[C@@H]3CC[C@@]2(C)C3(C)C)c(OC)c1 [HU-908, (1S,4S)-2-(2,6-dimethoxy-4-(2-methyloctan-2-yl)phenyl)-1,7,7-trimethylbicyclo[2.2.1]hept-2-ene] |  | > 50 | > 50 | > 50 | > 50 |  | 
CCCCCCC(C)(C)c1cc(OC)c(C2=C[C@H]3CC[C@]2(C(=O)OC)C3(C)C)c(OC)c1 [HU-912, (1S,4R)-methyl-2-(2,6-dimethoxy-4-(2-methyloctan-2-yl)phenyl)-7,7-dimethylbicyclo[2.2.1]hept-2-ene-1-carboxylate] |  | 0.0771 | 0.239 | 3.37 | > 10 |  | Emax ([2]; CHO; read-out: cAMP Assay CB2 Receptor Emax): 107 ± 4%; Emax ([3]; CHO, percentage of maximal response of HU-210, mean ± SEM, read-out: cAMP Assay CB1 Receptor Emax): 112 ± 8%
CCCCCCC(C)(C)c1cc(OC)c(C2=C[C@]3(C)CC[C@H]2C3(C)C)c(OC)c1 [HU-917, (1S,4S)-3-(2,6-dimethoxy-4-(2-methyloctan-2-yl)phenyl)-1,7,7-trimethylbicyclo[2.2.1]hept-2-ene] |  | > 50 | > 50 | > 50 | > 50 |  | 
CCCCCCC(C)(C)c1cc(OC)c(C2=C[C@@]3(C)CC[C@@H]2C3(C)C)c(OC)c1 [HU-918, (1R,4R)-3-(2,6-dimethoxy-4-(2-methyloctan-2-yl)phenyl)-1,7,7-trimethylbicyclo[2.2.1]hept-2-ene] |  | > 50 | > 50 | > 50 | > 50 |  | 
CCCCCc1cc(OC)c(C2C(=O)[C@]3(C)CC[C@H]2C3(C)C)c(OC)c1 (stereo partly drawn) [HU-936, (1R,4R)-3-(2,6-dimethoxy-4-pentylphenyl)-1,7,7-trimethylbicyclo[2.2.1]heptan-2-one] |  | 1.72 | > 50 | > 50 | > 50 |  | 
CCCCCc1cc(OC)c(C2C(O)[C@]3(C)CC[C@H]2C3(C)C)c(OC)c1 (stereo partly drawn) [HU-938, (1R,4R)-3-(2,6-dimethoxy-4-pentylphenyl)-1,7,7-trimethylbicyclo[2.2.1]heptan-2-ol] |  | 7.91 | > 50 | > 50 | > 50 |  | 
CCCCCc1cc(OC)c(C2=C[C@@H]3CC[C@@]2(CO)C3(C)C)c(OC)c1 [HU-969, (1R,4S)-(2-(2,6-dimethoxy-4-pentylphenyl)-7,7-dimethylbicyclo[2.2.1]hept-2-en-1-yl)methanol] |  |  |  | > 50 | > 50 | 6.46 | IC50 [2]: > 50 µM
CCCCCc1cc(OC)c(C2=C[C@H]3CC[C@]2(CO)C3(C)C)c(OC)c1 [HU-970, (1S,4R)-(2-(2,6-dimethoxy-4-pentylphenyl)-7,7-dimethylbicyclo[2.2.1]hept-2-en-1-yl)methanol] | 38 ± 2 |  |  | > 50 | > 50 | 1.27 | IC50 [2, 11]: 1.15 µM
CCCCCc1cc(OC)c(C2=C[C@@H]3CC[C@@]2(C(=O)OC)C3(C)C)c(OC)c1 [HU-971, (1R,4S)-methyl-2-(2,6-dimethoxy-4-pentylphenyl)-7,7-dimethylbicyclo[2.2.1]hept-2-ene-1-carboxylate] | 31 ± 4 |  |  | > 50 | > 50 | 0.704 | IC50 [2, 11]: 1.53 µM
CCCCCc1cc(OC)c(C2=C[C@H]3CC[C@]2(C(=O)OC)C3(C)C)c(OC)c1 [HU-972, (1S,4R)-methyl-2-(2,6-dimethoxy-4-pentylphenyl)-7,7-dimethylbicyclo[2.2.1]hept-2-ene-1-carboxylate] | 48 ± 5 |  |  | > 50 | > 50 | 0.168 | IC50 [2, 11]: 0.313 µM
CCCCCc1cc(OC)c(C2=C[C@@H]3CC[C@@]2(C(=O)O)C3(C)C)c(OC)c1 [HU-973, (1R,4S)-2-(2,6-dimethoxy-4-pentylphenyl)-7,7-dimethylbicyclo[2.2.1]hept-2-ene-1-carboxylic acid] | 40 ± 6 |  |  | > 50 | > 50 | 1.15 | IC50 [2, 11]: 2.09 µM
CCCCCc1cc(OC)c(C2=C[C@H]3CC[C@]2(C(=O)O)C3(C)C)c(OC)c1 [HU-974, (1S,4R)-2-(2,6-dimethoxy-4-pentylphenyl)-7,7-dimethylbicyclo[2.2.1]hept-2-ene-1-carboxylic acid] |  |  |  | > 50 | > 50 | > 10 | IC50 [2]: > 50 µM
